Measured values from ChEMBL document CHEMBL5370692, “Synthesis and Evaluation of Small Molecule Inhibitors of the Androgen Receptor N-Terminal Domain” (ACS Med Chem Lett, 2023).
pIC50: −log10 of the molar value.

Biological target: T1, Androgen receptor (Homo sapiens, UniProt P10275)
T1 sequence (P10275 whole entry): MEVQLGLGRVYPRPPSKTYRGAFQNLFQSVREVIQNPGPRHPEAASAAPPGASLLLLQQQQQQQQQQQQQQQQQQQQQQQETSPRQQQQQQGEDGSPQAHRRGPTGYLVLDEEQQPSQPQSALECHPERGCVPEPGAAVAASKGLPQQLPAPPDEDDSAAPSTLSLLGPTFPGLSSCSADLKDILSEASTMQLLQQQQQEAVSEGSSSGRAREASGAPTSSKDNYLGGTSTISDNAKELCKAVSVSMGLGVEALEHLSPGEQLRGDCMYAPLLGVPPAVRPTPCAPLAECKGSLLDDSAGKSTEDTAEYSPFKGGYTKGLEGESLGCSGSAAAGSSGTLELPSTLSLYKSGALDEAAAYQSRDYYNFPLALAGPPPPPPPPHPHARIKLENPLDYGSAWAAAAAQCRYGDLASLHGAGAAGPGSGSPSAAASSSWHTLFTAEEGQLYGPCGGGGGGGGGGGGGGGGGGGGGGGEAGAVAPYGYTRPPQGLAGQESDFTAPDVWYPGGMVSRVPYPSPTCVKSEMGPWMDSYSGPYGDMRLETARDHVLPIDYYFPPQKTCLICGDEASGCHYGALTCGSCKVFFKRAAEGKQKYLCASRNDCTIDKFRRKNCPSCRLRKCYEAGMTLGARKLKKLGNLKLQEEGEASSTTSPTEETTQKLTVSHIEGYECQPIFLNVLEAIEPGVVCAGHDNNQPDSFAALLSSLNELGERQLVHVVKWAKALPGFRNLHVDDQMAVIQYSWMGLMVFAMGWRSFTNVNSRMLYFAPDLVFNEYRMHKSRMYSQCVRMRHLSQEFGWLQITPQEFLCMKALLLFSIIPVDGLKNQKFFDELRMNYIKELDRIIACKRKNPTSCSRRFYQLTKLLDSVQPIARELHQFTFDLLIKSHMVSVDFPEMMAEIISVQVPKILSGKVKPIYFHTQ
Assay: Inhibition of androgen receptor in human VCaP cells expressing GRE-2-TATA-Luc co-expressing firefly luciferase incubated for 24 hrs in presence of DHT by luciferase reporter gene assay
Assay type: cell-based

A pIC50 of 6.10 was found for CSc1ccc(C(N)=O)cc1-c1ccc2cnccc2c1 in this work.
